Several values for one entry are separate records, joined by “and”; a condition that tells them apart may be missing. Equal values may be shown once. Read-outs that look alike come from different tables or passages of the source.
Key:
[1] = test system: COV362 cells; test: Cell proliferation assay (Incucyte growth inhibition); format: cell-based; settings: three replicates
Source text: (§1) Per cent confluence relative to a non-treated control was used to evaluate growth inhibition induced by test compounds. […] (https://synergyfinder.fimm.fi).

[2] = test system: DOTC24510 cells; test: as above; format: cell-based; settings: three replicates
Source text: as §1

[3] = test system: KYSE30 cells; test: as above; format: cell-based; settings: three replicates
Source text: as §1

[4] = test system: NUGC3 cells; test: as above; format: cell-based; settings: three replicates
Source text: as §1

[5] = test system: OVCAR3 cells; test: as above; format: cell-based; settings: three replicates
Source text: as §1

[6] = test system: RPE1-hTERT TP53-/- Cas9 CCNE1-high cells; test: as above; format: cell-based
Source text: as §1

[7] = test system: RPE1-hTERT TP53-/- Cas9 parental cells; test: as above; format: cell-based
Source text: as §1

[8] = test system: SNU8 cells; test: as above; format: cell-based; settings: three replicates
Source text: as §1

[9] = test system: SUM149PT cells; test: as above; format: cell-based; settings: three replicates
Source text: as §1

[10] = test system: TOV112D cells; test: as above; format: cell-based; settings: three replicates
Source text: as §1

[11] = test system: HCC1569 cells; test: Cytogenetic analysis of metaphase spreads (chromosome pulverization); format: cell-based
Procedure: KaryoMAX colcemid (100 ng ml^−1) (Thermo Fisher Scientific cat. no. 15212-012) was added to the medium in the last 2 h of treatment and cells were collected as follows. Growth medium was stored in a conical tube. Cells were treated twice for 5 min with 1 ml trypsin. The growth medium and the 2 ml of trypsinization incubations were centrifuged (250g, 5 min, 4 °C). Cells were then washed with PBS and resuspended in 75 mM KCl for 15 min at 37 °C. Cells were centrifuged again, the supernatant was removed, and cells were fixed by dropwise addition of 1 ml fixative (ice-cold methanol:acetic acid, 3:1) with gentle vortexing. An additional 9 ml fixative was then added, and cells were fixed at 4 °C for at least 16 h. Once fixed, metaphases were dropped on glass slides and air-dried overnight. To visualize mitotic cells, slides were mounted in DAPI-containing ProLong Gold mounting medium (Invitrogen, cat. no. P36930). Images were captured on a Zeiss LSM780 laser-scanning confocal microscope with ZEN 2.3 SP1 software.

[12] = test system: SUM149PT xenografts; test: Cell line-derived xenograft, tumour growth; format: in vivo, mouse; settings: for SUM149PT tumor volume: individual animals
Procedure: HCC1569, OVCAR3 and SUM149PT cells were implanted at 5 × 10^6 cells per mouse into the right flanks of female CB17-SCID, SCID-beige and NOD-SCID mice respectively (5–7 weeks old; Charles River), in 1:1 Matrigel:medium (Matrigel Corning, cat. no. CB35248).
Gemcitabine was administered once weekly intraperitoneally in saline. Animals were monitored for tumour volume, clinical signs and body weight three times per week. Tumour volume was measured using a digital calliper and calculated using the formula 0.52 × L × W^2, where L is length and W is width. Response to treatment was evaluated for tumour growth inhibition (% TGI). […] TV is tumour volume and subscripts indicate treatment group and time of sampling. According to NIACC and IACUC approved animal protocols, mice were euthanized as soon as their tumour volume exceeded 2,000 mm^3. Change in body weight (BW) was calculated using the formula: %BW change = (BWlast − BWday0/BWday0) × 100. BW change was calculated based on individual body weight changes relative to day 0. Statistical significance relative to vehicle control or other test groups was established by one-way ANOVA followed by Fisher’s least significant difference test for multiple groups and unpaired t-test for two group comparisons (GraphPad Prism v9.0). Investigators were not blinded during data collection and analysis.

[13] = test system: histone H3-pS10; test: Immunohistochemistry of OVCAR3 and HCC1569 tumours, histone H3-pS10; format: in vivo, mouse; settings: for Histone H3 pS10 H Score: individual tumours
[14] = In vitro blood/plasma ratio and fraction unbound in plasma; format: in vitro ADME; settings: plasma, CD-1 mouse, read-out: fraction unbound (fu) plasma
Procedure: The extraction of whole blood samples was performed by protein precipitation using four volumes of acetonitrile. The sample extracts were analysed using a Transcend LX2 Ultimate 3000 liquid chromatography system coupled to a Thermo Altis triple quadrupole electrospray mass spectrometer (Thermo Fisher Scientific) operated in positive mode. Separations were performed using a 2 × 50 mm, 2.8 µm Pursuit XRS C8 HPLC column (Agilent). […] Samples were quantified against a ten-point linear standard curve and three levels of quality control samples.

Cc1cc2c(C(N)=O)c(N)n(-c3c(C)ccc(O)c3C)c2nc1C [RP-6306]
EC50 ([1]; COV362, growth inhibition): 0.000332 mM | EC50 ([1]; growth inhibition): 0.000254 mM and 0.000342 mM | EC50 ([2]; Homo sapiens, DoTc2-4510, growth inhibition): 0.000456 mM | EC50 ([2]; growth inhibition): 0.000647 mM and 0.000449 mM | EC50 ([3]; Homo sapiens, KYSE-30, growth inhibition): 0.000955 mM | EC50 ([3]; growth inhibition): 0.000848 mM and 0.000936 mM | EC50 ([4]; Homo sapiens, NUGC-3, growth inhibition): 0.000928 mM | EC50 ([4]; growth inhibition): 0.000904 mM and 0.000735 mM | EC50 ([5]; Homo sapiens, OVCAR-3, growth inhibition): 127 nM | EC50 ([5]; growth inhibition): 112 nM and 89 nM | EC50 ([6]; Homo sapiens, RPE-1, read-out: RP-6306 EC50 (mM) RPE1 CCNE1 (C2), growth inhibition, three replicates): 0.000238 mM | EC50 ([6]; read-out: RP-6306 EC50 (mM) RPE1 CCNE1 (C2), growth inhibition, three replicates): 0.000437 mM and 0.000311 mM | EC50 ([7]; Homo sapiens, RPE-1, read-out: RP-6306 EC50 (mM) RPE1 WT, growth inhibition, three replicates): 0.0017 mM | EC50 ([7]; read-out: RP-6306 EC50 (mM) RPE1 WT, growth inhibition, three replicates): 0.00101 mM and 0.00183 mM | EC50 [8]: 38 nM and 32 nM and 34 nM | EC50 ([9]; Homo sapiens): 0.000455 mM | EC50 [9]: 0.000462 mM and 0.000515 mM | EC50 ([10]; Homo sapiens): 0.000566 mM | EC50 [10]: 0.000677 mM and 0.000604 mM | % of cells with pulverized chromosomes ([11]; 150 nM RP-6306): 90.91% and 97.56% and 95.24% | % of cells, chromosomes Normal ([11]; 150 nM RP-6306): 9.09% and 2.44% and 4.76% | % of cells with pulverized chromosomes ([11]; 500 nM RP-6306): 97.56% and 100.00% | % of cells, chromosomes Normal ([11]; 500 nM RP-6306): 2.44% and 0.00% | SUM149PT tumor volume ([12]; 7.5mg/kg (BID), time 0): 128.53 mm3 and 158.461 mm3 and 194.385 mm3 and 113.241 mm3 and 94.8869 mm3 and 123.786 mm3 and 160.627 mm3 and 128.794 mm3 | SUM149PT tumor volume ([12]; 7.5mg/kg (BID), time 5): 282.958 mm3 and 329.646 mm3 and 394.603 mm3 and 184.728 mm3 and 253.646 mm3 and 523.922 mm3 and 343.582 mm3 and 244.873 mm3 | SUM149PT tumor volume ([12]; 7.5mg/kg (BID), time 7): 184.004 mm3 and 435.521 mm3 and 380.303 mm3 and 214.723 mm3 and 251.389 mm3 and 646.583 mm3 and 622.12 mm3 and 205.263 mm3 | SUM149PT tumor volume ([12]; 7.5mg/kg (BID), time 11): 285.576 mm3 and 518.693 mm3 and 572.196 mm3 and 240.461 mm3 | SUM149PT tumor volume ([12]; 7.5mg/kg (BID), time 15): 449 mm3 and 1148.55 mm3 and 723.316 mm3 and 333.684 mm3 and 537.3 mm3 and 982.564 mm3 and 889.38 mm3 and 497.927 mm3 | SUM149PT tumor volume ([12]; 7.5mg/kg (BID), time 18): 423.69 mm3 and 1265.81 mm3 and 820.21 mm3 and 488.44 mm3 and 791.05 mm3 and 1081.34 mm3 and 1105.05 mm3 and 832.81 mm3 | SUM149PT tumor volume ([12]; 7.5mg/kg (BID), time 21): 405.011 mm3 and 1742.84 mm3 and 831.826 mm3 and 647.553 mm3 and 836.139 mm3 and 1403.18 mm3 and 1450.04 mm3 and 874.046 mm3 | SUM149PT tumor volume ([12]; 20mg/kg (BID), time 0): 125.205 mm3 and 102.765 mm3 and 108.222 mm3 and 157.328 mm3 and 201.357 mm3 and 118.893 mm3 and 154.908 mm3 and 115.864 mm3 | SUM149PT tumor volume ([12]; 20mg/kg (BID), time 5): 249.365 mm3 and 198.432 mm3 and 314.058 mm3 and 285.263 mm3 and 435.33 mm3 and 168.29 mm3 and 343.598 mm3 and 222.954 mm3 | SUM149PT tumor volume ([12]; 20mg/kg (BID), time 7): 397.396 mm3 and 246.656 mm3 and 398.813 mm3 and 350.54 mm3 and 481.673 mm3 and 400.651 mm3 and 425.647 mm3 and 351.189 mm3 | SUM149PT tumor volume ([12]; 20mg/kg (BID), time 15): 512.143 mm3 and 369.089 mm3 and 528.672 mm3 and 600.207 mm3 and 956.341 mm3 and 637.252 mm3 and 626.041 mm3 and 367.887 mm3 | SUM149PT tumor volume ([12]; 20mg/kg (BID), time 18): 924.69 mm3 and 459.85 mm3 and 636.04 mm3 and 576.09 mm3 and 960.34 mm3 and 701.15 mm3 and 544.89 mm3 and 433.04 mm3 | SUM149PT tumor volume ([12]; 20mg/kg (BID), time 21): 1226.11 mm3 and 460.254 mm3 and 666.307 mm3 and 494.758 mm3 and 1309.13 mm3 and 521.325 mm3 and 695.549 mm3 and 459.62 mm3 | effect on tumour growth ([12]; SUM149PT-derived tumours, oral twice daily): no effect | Histone H3 pS10 H Score ([13]; HCC1569 tumours, Dose 7.5 mg/kg): 7.247 and 5.87 and 4.179 | Histone H3 pS10 H Score ([13]; HCC1569 tumours, Dose 20 mg/kg): 4.15 and 6.218 | levels of histone H3 pS10 in tumours ([13]; IHC): dose-dependent increases | Histone H3 pS10 H Score ([13]; OVCAR3 tumours, Dose 1 mg/kg): 7.901 and 8.05 and 7.431 and 8.829 | Histone H3 pS10 H Score ([13]; OVCAR3 tumours, Dose 7.5 mg/kg): 9.985 and 9.464 and 11.6025 and 10.5702 | Histone H3 pS10 H Score ([13]; OVCAR3 tumours, Dose 20 mg/kg): 10.1592 and 14.4999 and 11.8974 and 10.6631 | fraction unbound [14]: 0.185
